We go through 25 compounds from US8729102B2, “Bicyclic compound” (Takeda Pharmaceutical Company Limited, priority 2010, dated 2014).

This assay has as its target T1, Human ACC2 (ACC2 (Nd), N terminal deleted) (Homo sapiens, UniProt O00763).
T1 construct: made in house; host or cells: SF-9 insect cells (baculovirus)
The assay is described as follows: Measurement of ACC2 inhibitory activity (malachite green, recombinant ACC2 (Nd)). The format is biochemical. The settings on record: 10 μM test compound, 20 min preincubation at 30° C., 20 min reaction; for inhibition at 10 µM: read-out: ACC2 inhibitory rate at 10 μM (%). As for the experimental part: The ACC2 inhibitory action of the compound of the present invention was evaluated by the following method.
(1) Cloning of Human ACC2 Gene and Preparation of Recombinant Baculovirus
Human ACC2 gene was cloned by PCR using a human skeletal muscle cDNA library (Clontech) as a template and Primer 1 and Primer 2 shown below. Primer 1 and Primer 2 were prepared by adding SalI, XbaI restriction enzyme recognition sequences based on the information of the base sequence of human ACC2 gene (Genbank Accession U89344).
PCR was performed using Pyrobest DNA polymerase (TAKARA BIO INC.). The obtained PCR product was cloned to pT7 Blue vector (Novagen) and after confirmation of the base sequence, digested with restriction enzymes SalI and XbaI. The obtained DNA fragment was inserted into pFAST-BacHTa (Invitrogen) digested with restriction enzymes Sail and XbaI to give expression plasmid ACC2/pFAST-BacHTa.
A plasmid for expression of ACC2 without a mitochondrial targeting sequence was prepared by PCR using the expression plasmid as a template, and Primer 3 (salI restriction enzyme recognition sequence was added) and Primer 4, which are prepared by reference to the information of human ACC2 gene base sequence (Genbank Accession U89344).
PCR was performed using Pyrobest-DNA polymerase (TAKARA BIO INC.). The obtained PCR product was cloned to pT7 Blue vector (Novagen) and after confirmation of the base sequence, digested with restriction enzymes SalI and Aflil. The obtained DNA fragment was inserted into ACC2/pFAST-BacHTa digested with restriction enzymes SalI and AfilI to give expression plasmid ACC2mito7/pFAST-BacHTa.
Using the expression plasmid ACC2mito7/pFAST-BacHTa and BAC-TO-BAC Baculovirus Expression System (Invitrogen), virus stock BAC-ACC2 of recombinant Baculovirus (N terminal deleted (hereinafter Nd)) was prepared.
(2) Preparation of ACC2 (Nd) Protein
SF-9 cells (Invitrogen) were inoculated to a medium (2 L) for insect cells (Sf-900IISFM medium (Invitrogen) containing 10% fetal bovine serum (Trace), 50 mg/L Gentamicin (Invitrogen), 0.1% Pluronic F-68 (Invitrogen)) at 0.5×10^6 cells/mL, and cultured with shaking in Wave Bioreactor (Wave) at 27° C., 20 rpm, rocking angle 6°, oxygen concentration 30%.
On day 4 of the culture, 3 L of the medium for insect cells was added, the rocking angle was set to 8°, and the cells were further cultured. On day 5 of the culture, 100 mL of recombinant Baculovirus BAC-ACC2 (Nd) was added, 5 L of the medium for insect cells was further added, the rocking angle was set to 11°, and the cells were cultured for 3 days. The culture medium was centrifuged at 1000×g for 10 min to give virus-infected cells. The cells were washed with phosphate buffered saline (Invitrogen) and centrifuged under the same conditions. The obtained cells were cryopreserved at −80° C.
The cryopreserved cells were thawed in ice and suspended in 900 mL of 25 mM HEPES buffer (pH 7.5) containing 10% Glycerol, 0.13 M NaCl, 1 mM EDTA, 25 mM Sodium β-Glycerophosphate and 1 mM Sodium Orthovanadate, and supplemented with Complete Protease Inhibitor (Nippon Boehringer Ingelheim Co., Ltd.). The obtained suspension was homogenized three times in a polytron homogenizer (Kinematica) at 20,000 rpm for 30 sec. The obtained cell disruption solution was clarified by centrifugation at 31000×g for 60 min, and filtered through a 0.45 μm filter. The filtrate was passed through a column packed with 60 mL of Ni-NTA Super Flow Gel (QUIAGEN) at a flow rate of about 5 mL/min. The column was washed with buffer A (50 mM HEPES (pH 7.5) containing 0.3 M NaCl), further washed with buffer A containing 20 mM Imidazole, and eluted with buffer A containing 100 mM Imidazole. The eluate was concentrated with Vivaspin 20 (Vivascience) with a molecular weight cut off of 30K. The obtained concentrate was dialyzed against 50 mM HEPES (pH 7.5) containing 10 mM MgCl2, 2 mM Dithiothreitol, 10 mM Tripotassium Citrate and 0.3 M NaCl. […]

T1 sequence (O00763 117-2458 limits assumed, stated change not applied): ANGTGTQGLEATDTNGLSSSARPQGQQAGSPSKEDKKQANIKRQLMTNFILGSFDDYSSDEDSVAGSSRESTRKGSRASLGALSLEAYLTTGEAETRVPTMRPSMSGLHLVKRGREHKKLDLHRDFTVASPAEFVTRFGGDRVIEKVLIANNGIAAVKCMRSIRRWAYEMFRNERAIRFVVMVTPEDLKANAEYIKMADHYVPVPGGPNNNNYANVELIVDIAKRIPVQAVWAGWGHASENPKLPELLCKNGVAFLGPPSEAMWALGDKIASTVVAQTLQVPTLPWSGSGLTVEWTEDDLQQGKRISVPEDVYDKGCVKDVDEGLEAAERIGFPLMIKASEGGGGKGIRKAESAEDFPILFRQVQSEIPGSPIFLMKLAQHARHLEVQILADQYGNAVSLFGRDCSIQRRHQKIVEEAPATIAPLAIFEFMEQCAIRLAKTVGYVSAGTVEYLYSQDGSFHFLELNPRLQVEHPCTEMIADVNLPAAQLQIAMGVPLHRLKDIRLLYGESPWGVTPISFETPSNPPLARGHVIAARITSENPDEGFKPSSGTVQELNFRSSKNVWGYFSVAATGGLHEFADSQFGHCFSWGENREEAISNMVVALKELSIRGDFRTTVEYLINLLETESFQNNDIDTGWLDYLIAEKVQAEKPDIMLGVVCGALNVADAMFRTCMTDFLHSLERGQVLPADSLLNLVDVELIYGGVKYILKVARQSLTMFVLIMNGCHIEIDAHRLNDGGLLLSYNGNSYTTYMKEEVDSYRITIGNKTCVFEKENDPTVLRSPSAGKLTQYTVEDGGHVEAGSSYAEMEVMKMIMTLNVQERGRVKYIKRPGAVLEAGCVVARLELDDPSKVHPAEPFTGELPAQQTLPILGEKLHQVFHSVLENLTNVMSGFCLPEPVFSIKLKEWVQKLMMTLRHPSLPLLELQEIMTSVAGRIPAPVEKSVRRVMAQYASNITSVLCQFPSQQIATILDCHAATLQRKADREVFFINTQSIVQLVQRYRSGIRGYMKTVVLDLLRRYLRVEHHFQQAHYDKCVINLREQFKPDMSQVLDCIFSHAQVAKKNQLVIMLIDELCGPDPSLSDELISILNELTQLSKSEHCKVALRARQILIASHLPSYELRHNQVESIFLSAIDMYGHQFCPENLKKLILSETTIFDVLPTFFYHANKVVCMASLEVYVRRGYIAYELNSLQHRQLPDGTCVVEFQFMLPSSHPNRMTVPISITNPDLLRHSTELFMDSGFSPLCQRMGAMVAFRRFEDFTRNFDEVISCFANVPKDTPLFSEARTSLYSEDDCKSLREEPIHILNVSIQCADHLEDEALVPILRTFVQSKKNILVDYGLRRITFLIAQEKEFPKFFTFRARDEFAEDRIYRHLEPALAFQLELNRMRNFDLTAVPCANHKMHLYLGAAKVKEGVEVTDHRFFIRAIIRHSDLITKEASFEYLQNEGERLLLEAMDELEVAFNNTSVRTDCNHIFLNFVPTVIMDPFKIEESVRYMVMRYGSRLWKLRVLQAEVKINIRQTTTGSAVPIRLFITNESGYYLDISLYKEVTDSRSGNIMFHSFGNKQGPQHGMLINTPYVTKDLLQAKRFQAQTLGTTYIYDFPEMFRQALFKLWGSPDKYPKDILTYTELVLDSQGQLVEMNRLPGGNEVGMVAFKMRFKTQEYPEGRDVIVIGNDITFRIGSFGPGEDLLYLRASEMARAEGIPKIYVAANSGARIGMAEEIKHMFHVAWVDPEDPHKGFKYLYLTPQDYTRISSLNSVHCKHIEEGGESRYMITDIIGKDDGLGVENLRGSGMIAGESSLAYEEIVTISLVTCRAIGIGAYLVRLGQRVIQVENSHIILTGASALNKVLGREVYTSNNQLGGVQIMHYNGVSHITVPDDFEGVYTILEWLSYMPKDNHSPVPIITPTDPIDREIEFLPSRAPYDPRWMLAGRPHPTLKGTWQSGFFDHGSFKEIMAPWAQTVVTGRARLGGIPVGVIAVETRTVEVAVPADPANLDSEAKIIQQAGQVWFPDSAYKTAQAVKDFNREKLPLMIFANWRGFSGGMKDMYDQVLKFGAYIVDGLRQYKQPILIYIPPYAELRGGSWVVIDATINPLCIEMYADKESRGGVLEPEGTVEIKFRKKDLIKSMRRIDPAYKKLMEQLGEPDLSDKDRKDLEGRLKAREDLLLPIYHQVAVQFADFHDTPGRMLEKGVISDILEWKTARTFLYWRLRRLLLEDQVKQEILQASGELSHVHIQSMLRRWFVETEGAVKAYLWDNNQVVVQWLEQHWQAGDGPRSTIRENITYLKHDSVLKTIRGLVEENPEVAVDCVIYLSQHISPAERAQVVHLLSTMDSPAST

Regarding `C[C@@H](COc1cnc(-c2nc3ccc(OCC4CC4(F)F)cc3o2)c(F)c1)NC(N)=O` (stereo partly drawn) [Example 112, Diastereomer of 1-{(1S)-2-[(6-{6-[(2,2-difluorocyclopropyl)methoxy]-1,3-benzoxazol-2-yl}-5-fluoropyridin-3-yl)oxy]-1-methylethyl}urea (retention time: long)], the “ACC2 inhibitory rate at 10 μM (%)” value was 100%.

In the case of `CC(=O)N[C@@H](C)COc1ccc(-c2nc3ccc(OCC4CC4)cc3o2)cc1` [Example 3, N-[(1S)-2-{4-[6-(cyclopropylmethoxy)-1,3-benzoxazol-2-yl]phenoxy}-1-methylethyl]acetamide], the inhibition at 10 µM worked out at 99%.

In the case of `CC(=O)N[C@@H](C)COc1ccc(C2Cc3ccc(OCC4CC4)cc3O2)nc1` (stereo partly drawn) [Example 24, N-[(1S)-2-({6-[6-(cyclopropylmethoxy)-2,3-dihydro-1-benzofuran-2-yl]pyridin-3-yl}oxy)-1-methylethyl]acetamide], the inhibition at 10 µM is 90%.

As to `COC(=O)N[C@@H](C)COc1ccc(-c2nc3ccc(OCC4CC4)cc3o2)nc1` [Example 17, methyl [(1S)-2-({6-[6-(cyclopropylmethoxy)-1,3-benzoxazol-2-yl]pyridin-3-yl}oxy)-1-methylethyl]carbamate], the inhibition at 10 µM is 90%.

In the case of `CC(=O)N[C@@H](C)COc1ccc(-c2nc3ccc(OCC4CC4)cn3c2F)cc1` [Example 92, N-[(1S)-2-{4-[6-(cyclopropylmethoxy)-3-fluoroimidazo[1,2-a]pyridin-2-yl]phenoxy}-1-methylethyl]acetamide], the inhibition at 10 µM came out at 93%.

`CC(=O)N[C@@H](C)COc1ccc(-c2nc3cc(OCC4CC4)ccn3n2)cc1` [Example 95, N-[(1S)-2-{4-[7-(cyclopropylmethoxy) [1,2,4]triazolo[1,5-a]pyridin-2-yl]phenoxy}-1-methylethyl]acetamide]: the inhibition at 10 µM is 94%.

`CC(=O)N[C@@H](C)COc1ccc(-c2nc3ccc(OCC4CC4)cn3n2)cc1` [Example 89, N-[(1S)-2-{4-[6-(cyclopropylmethoxy)[1,2,4]triazolo[1,5-a]pyridin-2-yl]phenoxy}-1-methylethyl]acetamide]: the inhibition at 10 µM is 94%.

Take `CC(=O)N[C@@H](C)COc1n[nH]c(-c2nc3ccc(OCC4CC4)cc3o2)c1F` [Example 9, N-[(1S)-2-({5-[6-(cyclopropylmethoxy)-1,3-benzoxazol-2-yl]-4-fluoro-1H-pyrazol-3-yl}oxy)-1-methylethyl]acetamide]: the inhibition at 10 µM worked out at 98%.

Take `CC(=O)N[C@@H](C)COc1cc(F)c(-n2cc3ccc(OCC4CC4)cc3n2)cc1F` [Example 70, N-[(1S)-2-{4-[6-(cyclopropylmethoxy)-2H-indazol-2-yl]-2,5-difluorophenoxy}-1-methylethyl]acetamide]: the inhibition at 10 µM amounted to 93%.

Take `CC(=O)N[C@@H](C)COc1ccc(-n2nc3cc(OCC4CC4)ccc3c2F)cc1` [Example 73, N-[(1S)-2-{4-[6-(cyclopropylmethoxy)-3-fluoro-2H-indazol-2-yl]phenoxy}-1-methylethyl]acetamide]: the inhibition at 10 µM was 99%.

For the compound `CC(=O)N[C@@H](C)COc1ccc(-c2cc3ccc(OCC4CC4)cn3n2)c(F)c1` [Example 104, N-[(1S)-2-{4-[6-(cyclopropylmethoxy)pyrazolo[1,5-a]pyridin-2-yl]-3-fluorophenoxy}-1-methylethyl]acetamide], the inhibition at 10 µM was 102%.

For the compound `CC(=O)N[C@@H](C)COc1ccc(-n2cc3ccc(OCC4CC4)cc3n2)cc1` [Example 13, N-[(1S)-2-{4-[6-(cyclopropylmethoxy)-2H-indazol-2-yl]phenoxy}-1-methylethyl]acetamide], the inhibition at 10 µM worked out at 94%.

Regarding `CC(=O)N[C@@H](C)COc1ccc(-c2nc3ccc(OCC(C)(F)F)cc3o2)nc1` [Example 30], the inhibition at 10 µM turned out to be 100%.

With `CNC(=O)N[C@@H](C)COc1ccc(-c2nc3ccc(OCC4CC4)cc3o2)nc1` [Example 16, 1-[(1S)-2-({6-[6-(cyclopropylmethoxy)-1,3-benzoxazol-2-yl]pyridin-3-yl}oxy)-1-methylethyl]-3-methylurea], the inhibition at 10 µM was 93%.

With `CC(=O)N[C@@H](C)COc1ccc(-n2cc3cc(OCC4CC4)ccc3n2)cc1` [Example 12, N-[(1S)-2-{4-[5-(cyclopropylmethoxy)-2H-indazol-2-yl]phenoxy}-1-methylethyl]acetamide], the inhibition at 10 µM was 103%.

As to `C[C@@H](COc1cnc(-c2nc3ccc(OCC4CC4(F)F)cc3o2)c(F)c1)NC(N)=O` (stereo partly shown) [Example 97], the inhibition at 10 µM amounted to 95%.

For `CC(=O)N[C@@H](C)COc1cnc(-c2nc3ccc(OCC4CC4(F)F)cc3o2)c(F)c1` (stereo partly drawn) [Example 109, Diastereomer of N-{(1S)-2-[(6-{6-[(2,2-difluorocyclopropyl)methoxy]-1,3-benzoxazol-2-yl}-5-fluoropyridin-3-yl)oxy]-1-methylethyl}acetamide (retention time: short)], the inhibition at 10 µM is 95%.

Regarding `CCOc1ccc2c(F)c(-c3ccc(OC[C@H](C)NC(C)=O)cc3F)nn2c1` [Example 100, N-{(1S)-2-[4-(6-ethoxy-3-fluoropyrazolo[1,5-a]pyridin-2-yl)-3-fluorophenoxy]-1-methylethyl}acetamide], the inhibition at 10 µM was 90%.

For `C[C@@H](COc1ccc(-c2nc3ccc(OCC4CC4)cc3o2)nc1)NC(N)=O` [Example 15, 1-[(1S)-2-({6-[6-(cyclopropylmethoxy)-1,3-benzoxazol-2-yl]pyridin-3-yl}oxy)-1-methylethyl]urea], the inhibition at 10 µM worked out at 92%.

`CCOc1ccc2cc(-c3ccc(OC[C@H](C)NC(C)=O)cc3)nn2c1` [Example 85, N-{(1S)-2-[4-(6-ethoxypyrazolo[1,5-a]pyridin-2-yl)phenoxy]-1-methylethyl}acetamide]: the inhibition at 10 µM amounted to 93%.

As for `CC(=O)N[C@@H](C)COc1cnc(-c2nc3ccc(OCC4CC4(F)F)cc3o2)c(F)c1` (stereo partly drawn) [Example 110, Diastereomer of N-{(1S)-2-[(6-{6-[(2,2-difluorocyclopropyl)methoxy]-1,3-benzoxazol-2-yl}-5-fluoropyridin-3-yl)oxy]-1-methylethyl}acetamide (retention time: long)], the “ACC2 inhibitory rate at 10 μM (%)” value was 91%.

Take `CC(=O)N[C@@H](C)COc1ccc(-c2nn3cc(OCC4CC4)ccc3c2F)c(F)c1` [Example 102, N-[(1S)-2-{4-[6-(cyclopropylmethoxy)-3-fluoropyrazolo[1,5-a]pyridin-2-yl]-3-fluorophenoxy}-1-methylethyl]acetamide]: the inhibition at 10 µM came out at 99%.

As to `CCC1(c2ccc(OC[C@H](C)NC(C)=O)cn2)Cc2ccc(OCC3CC3)cc2O1` (stereo partly drawn) [Example 119, Diastereomer of N-[(1S)-2-({6-[6-(cyclopropylmethoxy)-2-ethyl-2,3-dihydro-1-benzofuran-2-yl]pyridin-3-yl}oxy)-1-methylethyl]acetamide], the inhibition at 10 µM was 97%.

As for `CCOc1ccc2cn(-c3ccc(OC[C@H](C)NC(C)=O)cc3)nc2c1` [Example 26, N-{(1S)-2-[4-(6-ethoxy-2H-indazol-2-yl)phenoxy]-1-methylethyl}acetamide], the inhibition at 10 µM came out at 95%.

`CCOc1ccc2cn(-c3ccc(OC[C@H](C)NC(C)=O)cc3F)nc2c1` [Example 25, N-{(1S)-2-[4-(6-ethoxy-2H-indazol-2-yl)-3-fluorophenoxy]-1-methylethyl}acetamide monohydrate]: the inhibition at 10 µM was 90%.
